# Source: patent US20230066946A1, “1,5-DIPHENYLPYRAZOLYL-3-OXYALKYL ACIDS AND 1-PHENYL-5-THIENYLPYRAZOLYL-3-OXYALKYL ACIDS AND THE USE THEREOF FOR CONTROL OF UNWANTED PLANT GROWTH” (Bayer Aktiengesellschaft, priority 2019, published 2023)
# Assays:
# VIOTR = test: Post-emergence herbicidal action against VIOTR; type: in vivo, Viola tricolor; settings: 320 g/ha, visual rating about 3 weeks after treatment
# Protocol: (§1) [table] Seeds of mono- and dicotyledonous weed plants are placed in plastic pots in sandy loam soil (twin sowing with one species each of mono- or dicotyledonous weed plants per pot), covered with soil and cultivated in a greenhouse under controlled growth conditions. 2 to 3 weeks after sowing, the test plants are treated at the one-leaf stage. The compounds of the invention, formulated in the form of wettable powders (WP) or as emulsion concentrates (EC), are applied to the green parts of the plants as aqueous suspension or emulsion with addition of 0.5% additive at a water application rate equivalent to 600 litres per hectare. After the test plants have been kept in the greenhouse under optimum growth conditions for about 3 weeks, the activity of the preparations is rated visually in comparison to untreated controls. For example, 100% activity=the plants have died, 0% activity=like control plants. Tables 5.1-5.16 below show the effects of selected compounds of the general formula (I) according to Tables 1 to 3 on various harmful plants at an application rate corresponding to 1280 or 320 g/ha, which have been obtained by the aforementioned experimental method.
# ECHCG [1] = test: Pre-emergence herbicidal action against ECHCG; type: in vivo, Echinochloa crus-galli; settings: scored visually after about 3 weeks vs untreated controls, 100% = plants have died, 0% = like control plants
# From the text: (§2) Seeds of mono- and dicotyledonous weed plants are placed in plastic pots in sandy loam soil (doubly sown with one species each of mono- or dicotyledonous weed plants per pot) and covered with soil. The compounds of the invention, formulated in the form of wettable powders (WP) or as emulsion concentrates (EC), are then applied onto the surface of the covering soil as aqueous suspension or emulsion with addition of 0.5% additive at a water application rate equivalent to 600 litres per hectare. After the treatment, the pots are placed in a greenhouse and kept under good growth conditions for the trial plants. After about 3 weeks, the effect of the preparations is scored visually in comparison with untreated controls as percentages. For example, 100% activity=the plants have died, 0% activity=like control plants. [table] Tables 4.1-4.15 below show the effects of selected compounds of the general formula (I) according to Tables 1 to 3 on various harmful plants at an application rate corresponding to 1280 or 320 g/ha, which have been obtained by the aforementioned experimental method.
# VERPE [2] = test: Pre-emergence herbicidal action against VERPE; type: in vivo, Veronica persica; settings: 320 g/ha, scored visually after about 3 weeks vs untreated controls
# From the text: as §2
# SETVI [3] = test: Pre-emergence herbicidal action against SETVI; type: in vivo, Setaria viridis; settings: 1280 g/ha, scored visually after about 3 weeks vs untreated controls
# How it was run: (§3)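 Visual percent activity (100% = plants dead, 0% = like control) scored about 3 weeks after pre-emergence treatment in greenhouse. Compounds as WP or EC, applied to covering soil surface with 0.5% additive, 600 L/ha water, at 1280 or 320 g/ha.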
# AMARE [4] = test: Pre-emergence herbicidal action against AMARE; type: in vivo, Amaranthus retroflexus; settings: scored visually after about 3 weeks vs untreated controls; for Pre-emergence action at 320 g/ha against AMARE in %: 100% = plants have died, 0% = like control plants; for Pre-emergence action against AMARE in %: 1280 g/ha
# How it was run: as §3
# STEME [5] = test: Pre-emergence herbicidal action against STEME; type: in vivo, Stellaria media; settings: scored visually after about 3 weeks vs untreated controls
# How it was run: as §3
# VERPE [6] = test: Post-emergence herbicidal action against VERPE; type: in vivo, Veronica persica; settings: 320 g/ha, visual rating about 3 weeks after treatment
# Protocol: as §1
# AMARE [7] = test: Post-emergence herbicidal action against AMARE; type: in vivo, Amaranthus retroflexus; settings: visual rating about 3 weeks after treatment
# How it was run: (§4)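 Greenhouse, sandy loam, one-leaf stage; compound as WP/EC at 1280 or 320 g/ha plus 0.5% additive (600 L/ha). Visual % activity at ~3 weeks relative to untreated plants.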
# PHBPU = test: Post-emergence herbicidal action against PHBPU; type: in vivo, Pharbitis purpurea; settings: 320 g/ha, visual rating about 3 weeks after treatment
# Protocol: as §1
# POLCO [8] = test: Pre-emergence herbicidal action against POLCO; type: in vivo, Polygonum convolvulus; settings: 320 g/ha, scored visually after about 3 weeks vs untreated controls
# From the text: as §2
# STEME [9] = test: Post-emergence herbicidal action against STEME; type: in vivo, Stellaria media; settings: visual rating about 3 weeks after treatment
# How it was run: as §4
# ECHCG [10] = test: Post-emergence herbicidal action against ECHCG; type: in vivo, Echinochloa crus-galli; settings: 1280 g/ha, post-emergence at one-leaf stage, rated visually after about 3 weeks vs untreated controls
# Protocol: as §1
# SETVI [11] = test: Post-emergence herbicidal action against SETVI; type: in vivo, Setaria viridis; settings: 1280 g/ha, post-emergence at one-leaf stage, rated visually after about 3 weeks vs untreated controls
# Protocol: as §1
# POLCO [12] = test: Post-emergence herbicidal action against POLCO; type: in vivo, Polygonum convolvulus; settings: 320 g/ha, visual rating about 3 weeks after treatment
# Protocol: as §1
# MATIN = test: Post-emergence herbicidal action against MATIN; type: in vivo, Matricaria inodora; settings: visual rating about 3 weeks after treatment
# How it was run: as §4
SMILES,Post-emergence action against VIOTR in % (VIOTR),Pre-emergence action at 1280 g/ha against ECHCG in % (ECHCG [1]),Pre-emergence action against VERPE in % (VERPE [2]),Pre-emergence action against SETVI in % (SETVI [3]),Pre-emergence action at 320 g/ha against AMARE in % (AMARE [4]),Pre-emergence action against AMARE in % (AMARE [4]),Pre-emergence action against STEME in % (STEME [5]; 1280 g/ha),Post-emergence action against VERPE in % (VERPE [6]),Post-emergence action against AMARE in % (AMARE [7]; 320 g/ha),Post-emergence action against AMARE in % (AMARE [7]; 1280 g/ha),Post-emergence action against PHBPU in % (PHBPU),Pre-emergence action against POLCO in % (POLCO [8]),Post-emergence action against STEME in % (STEME [9]; 320 g/ha),Post-emergence action against STEME in % (STEME [9]; 1280 g/ha),Post-emergence action against ECHCG in % (ECHCG [10]),Post-emergence action against SETVI in % (SETVI [11]),Pre-emergence action against STEME in % (STEME [5]; 320 g/ha),Post-emergence action against POLCO in % (POLCO [12]),Post-emergence action against MATIN in % (MATIN; 320 g/ha),Post-emergence action against MATIN in % (MATIN; 1280 g/ha)
C#CCNC(=O)COc1nn(-c2ccccc2)c(-c2ccc(F)cc2)c1Br [III-006],80%,100%,90%,100%,90%,90%,100%,80%,80%,100%,80%,90%,,,,,,,,
CCOC(=O)COc1nn(-c2ccc(F)cc2F)c(-c2ccc(F)cc2)c1Br [I-081],100%,90%,80%,100%,80%,100%,100%,80%,90%,100%,90%,100%,80%,100%,90%,90%,80%,80%,80%,100%
O=C(O)COc1nn(-c2ccccc2F)c(-c2ccccc2)c1Br [I-082],100%,,80%,,90%,,,80%,80%,,90%,80%,,,,,,,80%,
CCOC(=O)COc1nn(-c2ccc(F)cc2F)c(-c2ccccc2)c1Br [I-079],100%,90%,,100%,80%,100%,100%,80%,80%,100%,90%,80%,,100%,100%,100%,,80%,80%,100%
"COC(=O)C(C)Oc1nn(-c2ccccc2)c(-c2cc(F)cc(F)c2)c1Cl (stereo not drawn) [I-165, Methyl 2-{[4-chloro-5-(3,5-difluorophenyl)-1-phenyl-1H-pyrazol-3-yl]oxy}propanoate]",80%,,100%,100%,90%,100%,100%,80%,,100%,80%,,,100%,,90%,,80%,,100%
CCOC(=O)COc1nn(-c2ccc(F)cc2F)c(-c2ccccc2)c1Cl [I-100],100%,100%,100%,100%,100%,100%,100%,90%,80%,90%,90%,,80%,90%,90%,,90%,90%,80%,90%
COC(=O)COc1nn(-c2ccccc2)c(-c2ccc(F)cc2)c1Br [I-101],100%,100%,,100%,90%,90%,100%,80%,80%,100%,90%,100%,,,,,,,90%,90%
COC(=O)COc1nn(-c2ccc(Cl)cc2)c(-c2ccccc2)c1Cl [I-001],,,,,,,,,,,,90%,,,,,,,,
C[Si](C)(C)COC(=O)COc1nn(-c2ccccc2F)c(-c2ccc(F)c(F)c2)c1Br [I-102],90%,100%,80%,100%,90%,100%,90%,80%,80%,90%,90%,100%,,100%,,,90%,,80%,100%
C=CCNC(=O)COc1nn(-c2ccc(F)cc2)c(-c2cccc(F)c2)c1Br [III-015],80%,100%,90%,100%,,100%,100%,90%,80%,,80%,90%,,,,,,80%,,
